# Assay results published in patent US20190262321A1, “METHODS OF TREATING DIABETIC NEPHROPATHY USING HPTPB INHIBITORS” (Aerpio Therapeutics, Inc., priority 2018, published 2019).
# Columns and labels:
# Male C57BL6 mice [1] = assay: Renal apoptosis after LPS (DNA laddering, TUNEL staining); assay type: in vivo; details: versus vehicle
# Method: Male C57BL6 mice, 9-10 weeks old, were injected i.p. with 0.2 mg E. coli LPS per 25 g body weight. The mice were injected with compound AA34 (50 mg/kg, 50 μL) or the vehicle (50 μL) at the time of lipopolysaccharide (LPS) injection, 8 after LPS injection, and 16 hours after LPS injection. The mice were sacrificed 24 h after the LPS injection. The saline-injected mice were studied in parallel as controls. Apoptosis was detected in kidney homogenate using DNA laddering, which is the result of apoptotic DNA fragmentation. […] Terminal deoxynucleotidyl transferase dUTP nick end labeling (TUNEL) staining was used to visualize the presence of apoptotic nuclei.
# [2] = system: inducible nitric oxide synthase (iNOS); assay: RT-PCR of kidney homogenate after LPS: iNOS; assay type: in vivo, mice; details: versus vehicle
# Method: (§1) Male C57BL6 mice, 9-10 weeks old, were injected i.p. with 0.2 mg E. coli LPS per 25 g body weight. The mice were injected with compound AA34 (50 mg/kg, 50 μL) or the vehicle (50 μL) at the time of lipopolysaccharide (LPS) injection, 8 after LPS injection, and 16 hours after LPS injection. The mice were sacrificed 24 h after the LPS injection. The saline-injected mice were studied in parallel as controls. Phosphatase inhibition by compound AA34 reduced renal mRNA expression of various mediators of inflammation and coagulation, as shown in FIG. 8. The kidneys of the mice were analyzed for RNA level expression of various inflammatory mediators. […] TNFR1, PAI-1, and tissue factor were expressed mainly in the endothelium, the site of Tie2 expression.
# TNFR1 = assay: RT-PCR of kidney homogenate after LPS: TNFR1; assay type: in vivo, mice; details: versus vehicle
# Method: as §1
# Male C57BL6 mice [3] = assay: Renal vascular leak after LPS (fluorescent dextrans, tomato lectin); assay type: in vivo; details: 24 h after LPS
# Method: Male C57BL6 mice, 9-10 weeks old, were injected i.p. with 0.2 mg E. coli LPS per 25 g body weight. The mice were injected with compound AA34 (50 mg/kg, 50 μL) or the vehicle (50 μL) at the time of lipopolysaccharide (LPS) injection, 8 after LPS injection, and 16 hours after LPS injection. The mice were sacrificed 24 h after the LPS injection. The saline-injected mice were studied in parallel as controls. Mice were injected with LPS and drug (compound AA34) versus the vehicle (LPS only). 2 min prior to sacrificing the animals at 24 h, the mice were injected with 70 kDa and 500 kDa fluorescent fixable dextrans by intravenous catheter.
# [4] = system: plasminogen activator inhibitor-1 (PAI-1); assay: RT-PCR of kidney homogenate after LPS: PAI-1; assay type: in vivo, mice; details: versus vehicle
# Method: as §1
# Male C57BL6 mice [5] = assay: Endotoxin (LPS)-induced acute kidney injury: serum BUN and kidney histology; assay type: in vivo
# Method: (§2) Male C57BL6 mice, 9-10 weeks old, were injected i.p. with 0.2 mg E. coli LPS per 25 g body weight. The mice were injected with compound AA34 (50 mg/kg, 50 μL) or the vehicle (50 μL) at the time of lipopolysaccharide (LPS) injection, 8 after LPS injection, and 16 hours after LPS injection. The mice were sacrificed 24 h after the LPS injection. The saline-injected mice were studied in parallel as controls. Serum samples from the mice were analyzed for BUN as a marker of kidney function.
# human subjects = assay: Assessment of renal function indices (UACR) in subjects treated with compound AA34; assay type: in vivo; details: for % Change in Geometric Mean (UACR): baseline to end of treatment (three months), patients with albuminuria at baseline
# Method: The human subjects treated with compound AA34 were administered 15 mg of the compound subcutaneously twice a day for three months. One group of subjects received the compound and ranibizumab (RBZ; 0.3 mg monthly via intraocular injection), while the other group received only the compound with a sham intraocular injection. The subjects in the placebo arm received a placebo subcutaneously twice a day along with ranibizumab. […] Within the subjects that had albuminuria, 30% had microalbuminuria (>30 mg/g and <300 mg/g UACR) and 20% had macroalbuminuria (>300 mg/g UACR).
# The results of the study are shown in FIG. 2 and TABLE 2 as the % change from baseline to end of treatment (three months) in geometric mean +95% confidence interval in the patients with albuminuria at baseline.
# Male C57BL6 mice [6] = assay: LPS-induced renal neutrophil infiltration; assay type: in vivo; details: 24 h after LPS injection
# Method: as §2, with “controls.” for “controls. Serum samples from the mice were analyzed for BUN as a marker of kidney function.”
# tissue factor = assay: RT-PCR of kidney homogenate after LPS: tissue factor; assay type: in vivo, mice; details: versus vehicle
# Method: as §1
# Tie2 = assay: Immunoprecipitation of kidney homogenate for Tie2 phosphorylation after LPS; assay type: in vivo, mice
# Method: Male C57BL6 mice, 9-10 weeks old, were injected i.p. with 0.2 mg E. coli LPS per 25 g body weight. The mice were injected with compound AA34 (50 mg/kg, 50 μL) or the vehicle (50 μL) at the time of lipopolysaccharide (LPS) injection, 8 after LPS injection, and 16 hours after LPS injection. The mice were sacrificed 24 h after the LPS injection. The saline-injected mice were studied in parallel as controls. Immunoprecipitation of kidney homogenate was performed to analyze the extent of Tie2 phosphorylation in the drug versus vehicle groups. Immunoprecipitation of kidney homogenate was completed using anti-Tie2 Ab, which was probed using anti-phosphotyrosine Ab. Total Tie2 levels were equal in the drug-treated and vehicle-treated groups after being injected with LPS.
# [7] = Baseline UACR 30-300 mg/g (n 31)
structure (smiles),measurement,setting,value
COC(=O)N[C@@H](Cc1ccccc1)C(=O)N[C@@H](Cc1ccc(NS(=O)(=O)O)cc1)c1csc(-c2cccs2)n1 [AA34],DNA laddering (apoptosis) in kidney homogenate,Male C57BL6 mice [1],less DNA laddering
same,apoptosis (TUNEL staining of apoptotic nuclei),Male C57BL6 mice [1],less apoptosis
same,reduction of renal mRNA expression of iNOS,[2],about 1.5 fold
same,reduction of renal mRNA expression of TNFR1,TNFR1,about 6 fold
same,LPS-induced extrusion of dye beyond the small peritubular capillaries (vascular leak),Male C57BL6 mice [3]; 70 kDa and 500 kDa fluorescent fixable dextrans,markedly reduced
same,tomato lectin staining of peritubular capillaries (vascular integrity),Male C57BL6 mice [3],relatively preserved
same,reduction of renal mRNA expression of PAI-1,[4],about 5 fold
same,morphologic tubular injury (histology),"Male C57BL6 mice [5]; 24 h after LPS injection, drug versus vehicle",less morphologic tubular injury
same,LPS-induced rise in BUN,"Male C57BL6 mice [5]; serum, 24 h after LPS, 50 mg/kg at 0, 8 and 16 hours, versus vehicle, p=0.002",statistically reduced
same,shift analysis: subjects with UACR 30-300 at Month 3/EOT,human subjects; [7],25 (81%)
same,shift analysis: subjects with UACR <30 at Month 3/EOT,human subjects; [7],4 (13%)
same,shift analysis: subjects with UACR >300 at Month 3/EOT,human subjects; [7],2 (6%)
same,shift analysis: subjects with UACR 30-300 at Month 3/EOT,human subjects; Baseline UACR <30 mg/g (n 43),2 (5%)
same,shift analysis: subjects with UACR <30 at Month 3/EOT,human subjects; Baseline UACR <30 mg/g (n 43),41 (95%)
same,shift analysis: subjects with UACR >300 at Month 3/EOT,human subjects; Baseline UACR <30 mg/g (n 43),0
same,shift analysis: subjects with UACR 30-300 at Month 3/EOT,human subjects; Baseline UACR >300 mg/g (n 18),1 (6%)
same,shift analysis: subjects with UACR <30 at Month 3/EOT,human subjects; Baseline UACR >300 mg/g (n 18),1 (6%)
same,shift analysis: subjects with UACR >300 at Month 3/EOT,human subjects; Baseline UACR >300 mg/g (n 18),16 (89%)
same,% Change in Geometric Mean (UACR),human subjects; 15 mg subcutaneously twice a day,−17.7%
same,% Change in Geometric Mean (UACR),"human subjects; 15 mg subcutaneously twice a day, listed as All Compound",−21.2%
same,reduction in the UACR compared to patients receiving placebo,"human subjects; three months, 15 mg subcutaneously twice a day",~20%
same,reduction of renal neutrophil infiltration,Male C57BL6 mice [6],over 50%
same,reduction of renal mRNA expression of tissue factor,tissue factor,about 0.8 fold
same,tyrosine phosphorylated Tie2 in kidney homogenate,"Tie2; LPS+Compound AA34 versus LPS+vehicle, 8 h after the last dose",increased levels
same,Total Tie2 levels in kidney homogenate,Tie2; drug-treated versus vehicle-treated groups after LPS,equal
